Results as given in patent US5037841A, “1,3-disubstituted pyrrolidines” (Bayer Aktiengesellschaft, priority 1988, dated 1991).
Where a name gives a salt, the structure may show the parent alone.

What follows are compounds tested against T1, 5-HT1 receptor (Bos taurus, UniProt F6Q2H9) (assay: Affinity for the 5-HT1 receptor: receptor binding studies using calf hippocampus membrane preparations, 3H-serotonin as radioligand). Conditions: Comparison compound of DE-A 1,964,511; test conditions not restated; read-out: Ki value (comparison compound).
T1 construct: calf hippocampus membrane preparations; from tissue; host or cells: calf hippocampus membranes
T1 sequence (F6Q2H9 1-422): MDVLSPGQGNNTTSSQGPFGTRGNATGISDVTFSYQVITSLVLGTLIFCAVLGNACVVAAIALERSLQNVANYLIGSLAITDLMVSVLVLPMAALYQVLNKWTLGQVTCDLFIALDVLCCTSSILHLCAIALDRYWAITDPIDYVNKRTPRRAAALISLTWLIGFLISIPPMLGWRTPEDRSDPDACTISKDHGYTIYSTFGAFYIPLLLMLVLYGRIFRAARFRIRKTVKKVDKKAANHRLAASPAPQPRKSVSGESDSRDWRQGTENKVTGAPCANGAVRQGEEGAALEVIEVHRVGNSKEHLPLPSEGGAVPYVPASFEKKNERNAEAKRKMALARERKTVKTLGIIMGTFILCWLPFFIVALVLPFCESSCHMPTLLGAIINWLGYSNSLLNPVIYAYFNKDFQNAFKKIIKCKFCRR
From the text: Affinity for the 5-HT1 receptor
The high affinity of the compound according to the invention for 5-hydroxytryptamine receptors of the subtype […] is represented by way of example in Table 4. The values indicated are data which have been determined from receptor binding studies using calf hippocampus membrane preparations. For this purpose, ^3 H-serotonin was used as a radioactively labelled ligand.
In the case of `COc1ccccc1OC1CCN(C(C)C)C1` (stereo not shown) [Comparison, reference compound], the Ki is reported as 1000 nM.

Same assay, conditions: calf hippocampus membranes; 3H-serotonin radioligand; read-out: Ki
`O=C1c2ccccc2S(=O)(=O)N1CCCCN1CCC(Oc2ccccc2)C1` (stereo not shown) [Example 6] showed a Ki of 9 nM. In the case of `O=C1c2ccccc2S(=O)(=O)N1CCCCN1CCC(Oc2cccc3ccccc23)C1` (stereo not shown) [Example 23, 3-(1-naphthyloxy)-1-[4-(1,1-dioxido-3-oxo-2,3-dihydrobenzisothiazol-2-yl)butyl]-pyrrolidine], the Ki is reported as 0.3 nM. For `COc1cccc(OC2CCN(CCCCN3C(=O)c4ccccc4S3(=O)=O)C2)c1` (stereo not shown) [Example 10, 3-(3-methoxyphenoxy)-1-[4-(1,1-dioxido-3-oxo-2,3-dihydrobenzisothiazol-2-yl)butyl]-pyrrolidine], the Ki was 6 nM. With `COc1ccccc1OC1CCN(CCCCN2C(=O)c3ccccc3S2(=O)=O)C1` (stereo not shown) [Example 8, 3-(2-methoxyphenoxy)-1-[4-(1,1-dioxido-3-oxo-2,3-dihydrobenzisothiazol-2-yl)butyl]-pyrrolidine] the Ki was 1.3 nM. For `NC(=O)c1ccccc1OC1CCN(CCCCN2C(=O)c3ccccc3S2(=O)=O)C1` (stereo not shown) [Example 19, 3-(2-carbamoylphenoxy)-1-[4-(1,1-dioxido-3-oxo-2,3-dihydrobenzisothiazol-2-yl)butyl]-pyrrolidine], the Ki was 7 nM. Compound `N#Cc1ccccc1OC1CCN(CCCCN2C(=O)c3ccccc3S2(=O)=O)C1` (stereo not shown) [Example 1, 3-(2-Cyanophenoxy)-1-[4-(1,1-dioxido-3-oxo-2,3-dihydrobenzisothiazol-2-yl)butyl]-pyrrolidine oxalate] has a Ki of 2 nM.
